Reference: patent publication US12421210B2, “Fused bicyclic heterocycles as therapeutic agents” (NEW YORK UNIVERSITY, priority 2018, dated 2025)
Where two headings read alike, the source gives them in different places.

Target: human NAMPT enzyme (His-hNAMPT) (Homo sapiens (Human), UniProt P43490)
Test: NAMPT enzymatic inhibition assay (fluorescence, NADH product)
Assay type: biochemical
[1] = [BPS], read-out: NAMPT IC50 (μM) [BPS]
[2] = [HDB], read-out: NAMPT IC50 (μM) [HDB]

Sequence of human NAMPT enzyme (His-hNAMPT) (P43490 whole entry): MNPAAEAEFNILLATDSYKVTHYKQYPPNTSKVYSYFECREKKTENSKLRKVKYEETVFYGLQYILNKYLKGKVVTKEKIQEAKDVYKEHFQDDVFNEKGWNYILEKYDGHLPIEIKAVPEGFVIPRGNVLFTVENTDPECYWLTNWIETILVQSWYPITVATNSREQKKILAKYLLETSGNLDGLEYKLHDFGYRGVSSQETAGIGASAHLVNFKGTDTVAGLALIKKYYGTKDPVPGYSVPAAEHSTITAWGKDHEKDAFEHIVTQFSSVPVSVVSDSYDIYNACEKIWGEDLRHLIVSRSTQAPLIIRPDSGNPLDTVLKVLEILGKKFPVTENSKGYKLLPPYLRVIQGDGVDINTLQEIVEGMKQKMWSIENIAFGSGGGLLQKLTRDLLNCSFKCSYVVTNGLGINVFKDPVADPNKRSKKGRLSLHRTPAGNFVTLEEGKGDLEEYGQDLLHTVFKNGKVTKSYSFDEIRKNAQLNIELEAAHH

Compound	IC50 [1] [µM]	IC50 [2] [µM]
Nc1ccc(/C=C/C(=O)NCC[C@@H]2[C@H]3CN(S(=O)(=O)c4ccc(F)cc4)C[C@@H]23)cn1 [Example 46, (E)-3-(6-aminopyridin-3-yl)-N-(2-((1R,5S,6s)-3-((4-fluorophenyl)sulfonyl)-3-azabicyclo[3.1.0]hexan-6-yl)ethyl)acrylamide]	0.01 to 0.49	–
O=C(NCC[C@@H]1[C@H]2CN(c3nc(Cl)ncc3F)C[C@@H]12)c1cnc2[nH]ncc2c1 [Example 224, N-(2-((1R,5S,6s)-3-(2-chloro-5-fluoropyrimidin-4-yl)-3-azabicyclo[3.1.0]hexan-6-yl)ethyl)-1H-pyrazolo[3,4-b]pyridine-5-carboxamide]	–	0.01 to 0.49
CN1CCC(OC(=O)N2C[C@@H]3[C@@H](CCNC(=O)/C=C/c4ccc(N)nc4)[C@@H]3C2)CC1 [Example 52, (1R,5S,6s)-(1-methylpiperidin)-4-yl 6-(2-((E)-3-(6-aminopyridin-3-yl)acrylamido)ethyl)-3-azabicyclo[3.1.0]hexane-3-carboxylate]	0.01 to 0.49	–
O=C(/C=C/c1cccnc1)NCC[C@@H]1[C@H]2CN(Cc3ccccc3)C[C@@H]12 [Example 243, (E)-N-(2-((1R,5S,6s)-3-benzyl-3-azabicyclo[3.1.0]hexan-6-yl)ethyl)-3-(pyridin-3-yl)acrylamide]	–	0.01 to 0.49
CC(C)(C)Oc1cccc(N2C[C@@H]3[C@@H](CCNC(=O)/C=C/c4cccnc4)[C@@H]3C2)c1 [Example 158, (E)-N-(2-((1R,5S,6s)-3-(3-(tert-butoxy)phenyl)-3-azabicyclo[3.1.0]hexan-6-yl)ethyl)-3-(pyridin-3-yl)acrylamide]	–	< 0.01
CC(c1ccc(F)cc1)N1C[C@@H]2[C@@H](CCNC(=O)/C=C/c3ccc(N)nc3)[C@@H]2C1 (stereo partly drawn) [Example 340, (E)-3-(6-aminopyridin-3-yl)-N-(2-((1R,5S,6s)-3-(1-(4-fluorophenyl)ethyl)-3-azabicyclo[3.1.0]hexan-6-yl)ethyl)acrylamide]	–	0.01 to 0.49
O=C(/C=C/c1cccnc1)NCC[C@@H]1[C@H]2CN(c3ccccc3Cl)C[C@@H]12 [Example 144, (E)-N-(2-((1R,5S,6s)-3-(2-chlorphenyl)-3-azabicyclo[3.1.0]hexan-6-yl)ethyl)-3-(pyridin-3-yl)acrylamide]	–	0.01 to 0.49
CC1(OC(=O)N2C[C@@H]3[C@@H](CCNC(=O)/C=C/c4ccncc4)[C@@H]3C2)COC1 [Example 35, (1R,5S,6s)-3-methyloxetan-3-yl 6-(2-((E)-3-(pyridin-4-yl)acrylamido)ethyl)-3-azabicyclo[3.1.0]hexane-3-carboxylate]	1 to 29	–
O=C(/C=C/c1cccnc1)NCC[C@@H]1[C@H]2CN(c3ncc4ccccc4n3)C[C@@H]12 [Example 125, (E)-3-(pyridin-3-yl)-N-(2-((1R,5S,6s)-3-(quinazolin-2-yl)-3-azabicyclo[3.1.0]hexan-6-yl)ethyl)acrylamide]	0.01 to 0.49	–
Nc1ccc(/C=C/C(=O)NCC[C@@H]2[C@H]3CN(C(=O)c4cccc(OC(F)F)c4)C[C@@H]23)cn1 [Example 91, (E)-3-(6-aminopyridin-3-yl)-N-(2-((1R,5S,6s)-3-(3-(difluoromethoxy)benzoyl)-3-azabicyclo[3.1.0]hexan-6-yl)ethyl)acrylamide]	0.01 to 0.49	–
O=C(/C=C/c1cccnc1)NCC[C@@H]1[C@H]2CN(c3cccc4[nH]ncc34)C[C@@H]12 [Example 337, (E)-N-(2-((1R,5S,6s)-3-(1H-indazol-4-yl)-3-azabicyclo[3.1.0]hexan-6-yl)ethyl)-3-(pyridin-3-yl)acrylamide]	–	0.01 to 0.49
O=C(NCC[C@@H]1[C@H]2CN(C(=O)Nc3ccccc3)C[C@@H]12)c1cnc2nccn2c1 [Example 78, N-(2-((1R,5S,6s)-3-(phenylcarbamoyl)-3-azabicyclo[3.1.0]hexan-6-yl)ethyl)imidazo[1,2-a]pyrimidine-6-carboxamide]	0.5 to 0.99	–
Cc1nc(C)c(C(=O)N2C[C@@H]3[C@@H](CCNC(=O)/C=C/c4ccc(N)nc4)[C@@H]3C2)o1 [Example 87, (E)-3-(6-aminopyridin-3-yl)-N-(2-((1R,5S,6s)-3-(2,4-dimethyloxazole-5-carbonyl)-3-azabicyclo[3.1.0]hexan-6-yl)ethyl)acrylamide]	0.01 to 0.49	–
O=C(/C=C/c1cccnc1)NCC[C@@H]1[C@H]2CN(c3cccc(F)c3)C[C@@H]12 [Example 128, (E)-N-(2-((1R,5S,6s)-3-(3-fluorophenyl)-3-azabicyclo[3.1.0]hexan-6-yl)ethyl)-3-(pyridin-3-yl)acrylamide]	0.01 to 0.49	–
O=C(NCC[C@@H]1[C@H]2CN(c3nc(Cl)ncc3F)C[C@@H]12)c1cc2ccncc2s1 [Example 223, N-(2-((1R,5S,6s)-3-(2-chloro-5-fluoropyrimidin-4-yl)-3-azabicyclo[3.1.0]hexan-6-yl)ethyl)thieno[2,3-c]pyridine-2-carboxamide]	–	0.01 to 0.49
O=C(/C=C/c1cccnc1)NCC[C@@]1(F)[C@@H]2CN(c3nc(Cl)ncc3F)C[C@@H]21 [Example 292, (E)-N-(2-((1R,5S,6r)-3-(2-chloro-5-fluoropyrimidin-4-yl)-6-fluoro-3-azabicyclo[3.1.0]hexan-6-yl)ethyl)-3-(pyridin-3-yl)acrylamide]	–	0.01 to 0.49
CC1(OC(=O)N2C[C@@H]3[C@@H](CCNC(=O)c4ccc5ncsc5c4)[C@@H]3C2)COC1 [Example 44, (1R,5S,6s)-3-methyloxetan-3-yl 6-(2-(benzo[d]thiazole-6-carboxamido)ethyl)-3-azabicyclo[3.1.0]hexane-3-carboxylate]	0.01 to 0.49	–

The remaining lines, values ahead:

IC50 [1] [µM]	IC50 [2] [µM]	Compound
–	< 0.01	O=C(/C=C/c1cccnc1)NCC[C@@H]1[C@H]2CN(c3ccc4c(c3)CNC4=O)C[C@@H]12 [Example 157, (E)-N-(2-((1R,5S,6s)-3-(1-oxoisoindolin-5-yl)-3-azabicyclo[3.1.0]hexan-6-yl)ethyl)-3-(pyridin-3-yl)acrylamide]
–	< 0.01	O=C(NCC[C@@H]1[C@H]2CN(c3nc(Cl)ncc3F)C[C@@H]12)c1cc(-c2cccnc2)on1 [Example 208, N-(2-((1R,5S,6s)-3-(2-chloro-5-fluoropyrimidin-4-yl)-3-azabicyclo[3.1.0]hexan-6-yl)ethyl)-5-(pyridin-3-yl)isoxazole-3-carboxamide]
0.01 to 0.49	–	O=C(NCC[C@@H]1[C@H]2CN(C(=O)OC3CCOCC3)C[C@@H]12)c1cc2ccncc2o1 [Example 61, (1R,5S,6s)-3-tetrahydro-2H-pyran-4-yl 6-(2-(furo[2,3-c]pyridine-2-carboxamido)ethyl)-3-azabicyclo[3.1.0]hexane-3-carboxylate]
0.01 to 0.49	–	CC1(OC(=O)N2C[C@@H]3[C@@H](CCNC(=O)c4cnc5nccn5c4)[C@@H]3C2)COC1 [Example 43, (1R,5S,6s)-3-methyloxetan-3-yl 6-(2-(imidazo[1,2-a]pyrimidine-6-carboxamido)ethyl)-3-azabicyclo[3.1.0]hexane-3-carboxylate]
–	< 0.01	O=C(/C=C/c1cccnc1)NCC[C@@H]1[C@H]2CN(c3ccc(Cl)c(Cl)c3)C[C@@H]12 [Example 147, (E)-N-(2-((1R,5S,6s)-3-(3,4-dichlorophenyl)-3-azabicyclo[3.1.0]hexan-6-yl)ethyl)-3-(pyridin-3-yl)acrylamide]
0.01 to 0.49	–	O=C(/C=C/c1cccnc1)NCC[C@@H]1[C@H]2CN(c3nc4ccccc4s3)C[C@@H]12 [Example 124, (E)-N-(2-((1R,5S,6s)-3-(benzo[d]thiazol-2-yl)-3-azabicyclo[3.1.0]hexan-6-yl)ethyl)-3-(pyridin-3-yl)acrylamide]
–	0.01 to 0.49	O=C(/C=C/c1ccccn1)NCC[C@@H]1[C@H]2CN(c3nc(Cl)ncc3F)C[C@@H]12 [Example 209, (E)-N-(2-((1R,5S,6s)-3-(2-chloro-5-fluoropyrimidin-4-yl)-3-azabicyclo[3.1.0]hexan-6-yl)ethyl)-3-(pyridin-2-yl)acrylamide]
0.01 to 0.49	0.01 to 0.49	O=C(/C=C/c1cccnc1)NCC[C@@H]1[C@H]2CN(S(=O)(=O)c3ccccc3)C[C@@H]12 [Example 23, (E)-N-(2-((1R,5S,6s)-3-(phenylsulfonyl)-3-azabicyclo[3.1.0]hexan-6-yl)ethyl)-3-(pyridin-3-yl)acrylamide]
–	< 0.01	COc1ncc(F)c(N2C[C@@H]3[C@@H](CCNC(=O)/C=C/c4cnccc4F)[C@@H]3C2)n1 [Example 332, (E)-N-(2-((1R,5S,6s)-3-(5-fluoro-2-methoxypyrimidin-4-yl)-3-azabicyclo[3.1.0]hexan-6-yl)ethyl)-3-(4-fluoropyridin-3-yl)acrylamide]
–	0.01 to 0.49	O=C(NCC[C@@H]1[C@H]2CN(c3nc(Cl)ncc3F)C[C@@H]12)c1cc2cnccc2[nH]1 [Example 204, N-(2-((1R,5S,6s)-3-(2-chloro-5-fluoropyrimidin-4-yl)-3-azabicyclo[3.1.0]hexan-6-yl)ethyl)-1H-pyrrolo[3,2-c]pyridine-2-carboxamide]
0.01 to 0.49	–	O=C(NCC[C@@H]1[C@H]2CN(c3ncc4ccccc4n3)C[C@@H]12)c1cc2ccncc2o1 [Example 122, N-(2-((1R,5S,6s)-3-(quinazolin-2-yl)-3-azabicyclo[3.1.0]hexan-6-yl)ethyl)furo[2,3-c]pyridine-2-carboxamide]
0.01 to 0.49	–	Cc1nc(C)c(C(=O)N2C[C@@H]3[C@@H](CCNC(=O)c4cc5cnccc5[nH]4)[C@@H]3C2)o1 [Example 113, N-(2-((1R,5S,6s)-3-(2,4-dimethyloxazole-5-carbonyl)-3-azabicyclo[3.1.0]hexan-6-yl)ethyl)-1H-pyrrolo[3,2-c]pyridine-2-carboxamide]
–	0.01 to 0.49	Nc1ccc(/C=C/C(=O)NCC[C@@H]2[C@H]3CN(c4ccc(F)cc4)C[C@@H]23)cn1 [Example 341, (E)-3-(6-aminopyridin-3-yl)-N-(2-((1R,5S,6s)-3-(4-fluorophenyl)-3-azabicyclo[3.1.0]hexan-6-yl)ethyl)acrylamide]
–	0.01 to 0.49	Cc1nc(C)c(C(=O)N2C[C@@H]3[C@@H](CCNC(=O)c4cc5ccncc5s4)[C@@H]3C2)o1 [Example 114, N-(2-((1R,5S,6s)-3-(2,4-dimethyloxazole-5-carbonyl)-3-azabicyclo[3.1.0]hexan-6-yl)ethyl)thieno[2,3-c]pyridine-2-carboxamide]
